Assay results as given in ChEMBL document CHEMBL1201862, “PubChem BioAssay data set” (2004).
Activity calls are given as the source filed them.

Tests used:
Kallikrein-7 = Kallikrein-7 (Homo sapiens, UniProt P49862); experiment: Fluorescence Intensity-based biochemical primary high throughput dose response assay to identify activators of kallikrein-7 (K7) zymogen.
[1] = target: T1, Oxysterols receptor LXR-beta (Homo sapiens, UniProt P55055); format: functional, cell-based;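 note: agonist activity at LXR measured by a cell-based luminescence readout across a dose range, run as a counterscreen for daf-12 agonists; HEK293 cells with Gal4-LXR fusion and GAL4-driven luciferase reporter; potency for activation of Gal4-LXR reporter so compounds are agonists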
T1 sequence (P55055 whole entry): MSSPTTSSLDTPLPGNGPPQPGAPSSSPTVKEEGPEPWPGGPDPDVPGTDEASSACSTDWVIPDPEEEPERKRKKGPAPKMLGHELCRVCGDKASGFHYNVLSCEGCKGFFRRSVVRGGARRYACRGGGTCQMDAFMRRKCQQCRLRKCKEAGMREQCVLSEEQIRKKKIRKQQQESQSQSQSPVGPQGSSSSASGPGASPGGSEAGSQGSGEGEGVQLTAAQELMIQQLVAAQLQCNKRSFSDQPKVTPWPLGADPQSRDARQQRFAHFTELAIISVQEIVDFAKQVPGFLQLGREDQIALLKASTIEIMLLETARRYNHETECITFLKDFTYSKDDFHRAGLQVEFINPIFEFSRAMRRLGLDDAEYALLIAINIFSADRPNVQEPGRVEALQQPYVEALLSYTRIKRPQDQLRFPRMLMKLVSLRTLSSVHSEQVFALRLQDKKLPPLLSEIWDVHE

HeLa = experiment: viability loss in HeLa cells – cell-based, ATP luminescence, cherry-pick samples, cytotoxicity control, dose response (AID 687004); format: functional; settings: Homo sapiens
HEK293 = experiment: viability loss in HEK293T cells – cell-based, ATP luminescence, cherry-pick samples, cytotoxicity control, dose response (AID 687005); format: functional; settings: Homo sapiens;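 note: cells exposed to compound for 48 hours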
[2] = HEK293 Cytotoxicity Assay Measured in Cell-Based System Using Plate Reader - 7071-01_Inhibitor_Dose_CherryPick_Activity_Set2.; format: functional
[3] = viability loss in A549 lung cells – cell-based, 24 h, CellTiter-Glo luminescence, cherry-picks, cytotoxicity control, dose response (AID 1053115); format: functional; settings: A549, 24 h
[4] = inhibitors of non-replicating M. tuberculosis, dose response, luciferase, dry powder (AID 651619); format: functional; settings: Mycobacterium tuberculosis
[5] = inhibitors of non-replicating M. tuberculosis, dose response, luciferase, dry powder (AID 651620); format: functional; settings: Mycobacterium tuberculosis
[6] = growth inhibition of replicating M. tuberculosis, dose response, counter-screen, dry powder, IC90 (AID 651617); format: functional; settings: Mycobacterium tuberculosis
[7] = inhibitors of TRPM1-promoter reporter in SK-MEL-5 – cell-based, luciferase, dry powder, set 9, MITF inhibitor project, dose response (AID 651588); format: functional
[8] = MITF Orthogonal Assay: MALME3 CTG Assay Measured in Cell-Based System Using Plate Reader - 2084-04_Inhibitor_Dose_DryPowder_Activity_Set6.; format: functional; settings: MALME-3
[9] = growth inhibition of SK-MEL-5 melanoma cells – cell-based, CellTiter-Glo luminescence, dry powder, set 8, orthogonal assay for MITF inhibitor project, dose response (AID 651586); format: functional
[10] = growth inhibition of MALME3 cells – cell-based, CellTiter-Glo luminescence, dry powder, set 5, orthogonal assay for MITF inhibitor project, dose response (AID 651584); format: functional; settings: MALME-3
[11] = MITF Orthogonal Assay: SK-MEL-5 CTG Assay Measured in Cell-Based System Using Plate Reader - 2084-02_Inhibitor_Dose_DryPowder_Activity_Set7.; format: functional
[12] = MITF: Counter assay: A375 proliferation Measured in Cell-Based System Using Plate Reader - 2084-03_Inhibitor_Dose_DryPowder_Activity_Set8.; format: functional; settings: A-375
[13] = cytotoxicity in MITF-independent A375 cells – cell-based, CellTiter-Glo luminescence, dry powder, set 9, counter-screen for MITF modulator project, dose response (AID 651591); format: functional; settings: A-375
[14] = inhibitors of TRPM1-promoter reporter in SK-MEL-5 – cell-based, luciferase, dry powder, set 8, MITF inhibitor project, dose response (AID 624430); format: functional
[15] = Late stage assay provider results from the probe development effort to identify selective inhibitors of heat shock protein 90 (HSP90): Absorbance-based cell proliferation assay in SKBR3 cells.; format: functional; settings: SK-BR-3
[16] = Late stage assay provider results from the probe development effort to identify selective inhibitors of heat shock protein 90 (HSP90): Absorbance-based cell proliferation assay in MCF7 cells.; format: functional
Fatty acid synthase = Fatty acid synthase (Homo sapiens, UniProt P49327); experiment: inhibition of human FAS-TE enzyme activity – biochemical, endpoint fluorescence intensity, powder samples, SAR follow-up (AID 652164); format: functional
[17] = target: T2, High affinity choline transporter 1 (Homo sapiens, UniProt Q9GZV3); experiment: inhibition of SLC5A7-mediated choline transport – cell-based, HEK-293 hCHT, [3H]-choline uptake, dose response (AID 652177); format: functional
T2 sequence (Q9GZV3 whole entry): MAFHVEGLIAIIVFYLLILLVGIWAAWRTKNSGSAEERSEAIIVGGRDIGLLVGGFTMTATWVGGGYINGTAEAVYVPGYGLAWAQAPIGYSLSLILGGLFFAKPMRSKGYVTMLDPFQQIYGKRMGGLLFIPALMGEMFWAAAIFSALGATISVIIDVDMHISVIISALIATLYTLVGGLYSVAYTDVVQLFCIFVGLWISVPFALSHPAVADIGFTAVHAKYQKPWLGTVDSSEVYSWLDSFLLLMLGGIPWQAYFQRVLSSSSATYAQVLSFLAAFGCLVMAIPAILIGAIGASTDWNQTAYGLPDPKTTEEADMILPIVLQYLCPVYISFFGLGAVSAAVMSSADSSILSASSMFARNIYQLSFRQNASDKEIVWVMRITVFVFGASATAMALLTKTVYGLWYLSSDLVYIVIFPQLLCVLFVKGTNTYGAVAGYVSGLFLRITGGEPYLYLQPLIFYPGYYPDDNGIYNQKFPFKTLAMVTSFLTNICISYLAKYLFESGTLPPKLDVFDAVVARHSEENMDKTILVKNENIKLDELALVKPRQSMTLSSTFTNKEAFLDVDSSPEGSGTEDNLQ

[18] = HepG2 cell viability loss – cherry-picked samples, cytotoxicity control, dose response (AID 1053183); format: functional, cell-based

Kallikrein-7, sequence (P49862 whole entry, the tested form may be a part): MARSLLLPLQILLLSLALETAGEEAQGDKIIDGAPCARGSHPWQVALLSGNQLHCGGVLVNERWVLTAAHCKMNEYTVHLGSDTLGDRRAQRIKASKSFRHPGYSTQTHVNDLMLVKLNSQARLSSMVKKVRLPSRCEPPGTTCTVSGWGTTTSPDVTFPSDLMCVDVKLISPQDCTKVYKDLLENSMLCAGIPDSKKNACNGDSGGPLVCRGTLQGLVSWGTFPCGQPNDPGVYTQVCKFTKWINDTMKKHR
Fatty acid synthase, sequence (P49327 whole entry): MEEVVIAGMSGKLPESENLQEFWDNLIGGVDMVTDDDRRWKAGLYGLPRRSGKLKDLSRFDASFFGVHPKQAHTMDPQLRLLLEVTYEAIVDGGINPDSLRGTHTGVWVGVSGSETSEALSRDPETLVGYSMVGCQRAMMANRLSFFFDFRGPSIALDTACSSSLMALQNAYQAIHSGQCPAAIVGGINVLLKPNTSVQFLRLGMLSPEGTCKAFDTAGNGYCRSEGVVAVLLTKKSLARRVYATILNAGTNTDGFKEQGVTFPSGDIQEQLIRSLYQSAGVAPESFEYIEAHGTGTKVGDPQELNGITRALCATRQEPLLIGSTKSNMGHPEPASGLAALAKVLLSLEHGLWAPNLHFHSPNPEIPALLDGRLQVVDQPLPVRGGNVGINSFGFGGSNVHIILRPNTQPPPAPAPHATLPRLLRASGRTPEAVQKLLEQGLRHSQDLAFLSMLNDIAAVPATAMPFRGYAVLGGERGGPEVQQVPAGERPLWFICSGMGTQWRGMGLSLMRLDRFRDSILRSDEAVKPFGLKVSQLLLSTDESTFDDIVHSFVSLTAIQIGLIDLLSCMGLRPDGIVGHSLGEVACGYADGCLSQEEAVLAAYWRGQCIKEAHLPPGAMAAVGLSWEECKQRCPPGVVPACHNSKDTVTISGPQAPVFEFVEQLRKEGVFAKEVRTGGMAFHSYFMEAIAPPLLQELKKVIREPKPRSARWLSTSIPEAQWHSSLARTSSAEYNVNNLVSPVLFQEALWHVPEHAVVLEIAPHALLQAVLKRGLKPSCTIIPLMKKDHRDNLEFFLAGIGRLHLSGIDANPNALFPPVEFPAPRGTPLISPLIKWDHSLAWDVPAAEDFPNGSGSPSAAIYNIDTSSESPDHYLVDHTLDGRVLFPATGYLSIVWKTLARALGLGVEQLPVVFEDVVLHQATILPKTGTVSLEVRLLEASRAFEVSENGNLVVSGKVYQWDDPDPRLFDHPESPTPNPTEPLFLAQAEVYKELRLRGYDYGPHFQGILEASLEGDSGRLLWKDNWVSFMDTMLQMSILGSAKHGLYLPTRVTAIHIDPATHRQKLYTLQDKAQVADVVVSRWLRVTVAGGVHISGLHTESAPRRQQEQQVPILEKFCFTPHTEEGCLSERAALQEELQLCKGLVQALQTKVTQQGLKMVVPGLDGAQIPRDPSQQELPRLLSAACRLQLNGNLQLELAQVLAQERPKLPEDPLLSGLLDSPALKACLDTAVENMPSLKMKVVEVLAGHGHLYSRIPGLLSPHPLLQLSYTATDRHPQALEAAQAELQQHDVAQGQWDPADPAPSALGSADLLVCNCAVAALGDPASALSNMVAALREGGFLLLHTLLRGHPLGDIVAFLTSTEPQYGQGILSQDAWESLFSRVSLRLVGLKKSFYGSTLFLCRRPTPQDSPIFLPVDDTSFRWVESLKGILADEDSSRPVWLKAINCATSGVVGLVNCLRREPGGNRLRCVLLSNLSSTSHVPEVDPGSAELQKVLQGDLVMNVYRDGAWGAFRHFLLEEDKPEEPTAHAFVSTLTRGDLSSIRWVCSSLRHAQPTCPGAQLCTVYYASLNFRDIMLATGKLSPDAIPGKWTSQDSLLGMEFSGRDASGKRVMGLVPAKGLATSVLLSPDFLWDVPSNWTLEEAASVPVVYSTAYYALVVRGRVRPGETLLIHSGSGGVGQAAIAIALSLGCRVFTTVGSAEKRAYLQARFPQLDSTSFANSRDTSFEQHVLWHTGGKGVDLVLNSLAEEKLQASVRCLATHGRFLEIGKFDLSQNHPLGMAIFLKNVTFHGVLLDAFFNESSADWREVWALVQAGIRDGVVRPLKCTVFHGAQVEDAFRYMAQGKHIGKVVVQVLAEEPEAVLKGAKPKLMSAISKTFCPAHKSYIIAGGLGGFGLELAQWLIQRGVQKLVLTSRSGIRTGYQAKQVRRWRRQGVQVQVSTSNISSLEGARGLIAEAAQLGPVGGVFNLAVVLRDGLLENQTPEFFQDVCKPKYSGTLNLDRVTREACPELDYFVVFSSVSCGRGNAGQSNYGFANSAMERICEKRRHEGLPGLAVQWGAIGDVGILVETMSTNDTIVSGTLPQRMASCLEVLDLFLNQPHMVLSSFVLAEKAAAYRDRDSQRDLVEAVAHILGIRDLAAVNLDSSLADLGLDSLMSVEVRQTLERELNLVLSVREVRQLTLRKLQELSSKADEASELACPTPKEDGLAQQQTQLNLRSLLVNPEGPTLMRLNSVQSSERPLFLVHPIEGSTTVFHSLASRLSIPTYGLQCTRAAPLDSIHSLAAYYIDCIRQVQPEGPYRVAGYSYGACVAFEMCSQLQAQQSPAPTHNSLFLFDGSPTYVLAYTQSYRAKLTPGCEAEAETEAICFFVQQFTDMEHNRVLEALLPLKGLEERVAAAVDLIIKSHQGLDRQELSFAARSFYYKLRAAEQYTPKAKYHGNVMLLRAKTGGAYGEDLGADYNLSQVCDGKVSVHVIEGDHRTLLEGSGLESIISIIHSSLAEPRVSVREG

## CSc1ccc(/C=C/C(=O)OCC(=O)NC2CCS(=O)(=O)C2)cc1 (configuration not stated)
Kallikrein-7
  EC50: > 69.5 µM (inactive)

## CC(C)C(N)c1csc(Nc2nncc3ccccc23)n1 (configuration not stated)
[1]
  EC50: > 67.1 µM (inactive)

## Cc1ccccc1CN(C)C[C@H]1OCc2cn(nn2)CCCC(=O)N([C@@H](C)CO)C[C@H]1C
HeLa
  AC50: 14.7 µM (active)
HEK293
  AC50: 46.7 µM (active)
[2]
  AC50: 46.7 µM (active)

## N#Cc1ccc(-c2ccc3c(c2)[C@H]2[C@H](CCN2C(=O)C2CCCCC2)[C@H](CO)N3)cc1
[3]
  AC50: 42 µM (active)

## c1ccc(-n2cc(CSc3nnc(C4CCCC4)o3)nn2)cc1
[4]
  IC90: 1 µM (active)
[5]
  IC90: 1 µM (active)
[6]
  IC90: 125 µM (active)

## CC(C)N1CCN(C2=C(Nc3ccc(F)cc3)C(=O)c3ccccc3C2=O)CC1
[7]
  AC50: 9.77 µM (active)
[8]
  AC50: 38.6 µM (active)
[9]
  AC50: > 70 µM (inactive)
[10]
  AC50: 38.6 µM (active)
[11]
  AC50: 10.5 µM (active)
[12]
  AC50: > 70 µM (inactive)
[13]
  AC50: > 70 µM (inactive)
[14]
  AC50: 3.6 µM (active)

## COc1ccc(NC(=O)c2ccc(NC(=O)c3coc(=O)c(Br)c3)cc2)cc1
[15]
  IC50: 27.2 µM (inactive)
[16]
  IC50: 12.1 µM (inactive)

## CCCCC(=O)Nc1nc(-c2ccc(C(=O)N3CCOCC3)cc2)cs1
Fatty acid synthase
  IC50: 35.3 µM (inactive)

## COc1ccc(C(=O)NCc2cc(C)n(C)n2)cc1OC1CCN(C(C)C)CC1
[17]
  IC50: 65.5 µM (inconclusive)

## O=S(=O)(c1ccc(F)cc1)N1C[C@@H]2N[C@H](C1)[C@@H]2c1ccc(/C=C/c2ccccc2)cc1
[18]
  AC50: 19.1 µM (active)
